This passage reports IC50 results from publication PMC5131496, “In vitro and in vivo anti-malarial activity of novel harmine-analog heat shock protein 90 inhibitors: a possible partner for artemisinin” (Malaria Journal, 2016).

This test addresses T1, P. falciparum heat shock protein 90 (PfHsp90) (Plasmodium falciparum, UniProt Q8IC05).
T1 construct: gene PF3D7_0708400
Nature of the test: bis-ANS fluorescence competitive binding assay with purified recombinant GHKL domain.

Molecules are shown by their SMILES.

Usually IC50 stands for the point on the concentration scale where inhibition reaches its midpoint.

T1 sequence (Q8IC05 1-211 limits assumed): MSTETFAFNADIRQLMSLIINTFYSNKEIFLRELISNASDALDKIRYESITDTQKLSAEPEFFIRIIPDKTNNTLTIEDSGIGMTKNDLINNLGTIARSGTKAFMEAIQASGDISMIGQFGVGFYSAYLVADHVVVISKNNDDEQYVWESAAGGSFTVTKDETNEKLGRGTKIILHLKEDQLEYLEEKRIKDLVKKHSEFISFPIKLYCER

In the case of `CC1NCCc2c1[nH]c1ccc(Cl)cc21` (centres unmarked) [17A], the IC50 was 12.2 ± 2.3 µM.
To `CC1NCCc2c1[nH]c1ccc(Br)cc21` (centres unmarked) [21A] belongs 23.1 ± 8.8 µM.
